Data set [1] addresses T1, human α7 nAChR subtype (Homo sapiens, UniProt P36544).
T1 construct: expressed in transfected cells; host or cells: Xenopus laevis oocytes injected with mRNA
Conditions: antagonistic activity, TEVC; value (95% CI); cited from earlier work.

In data set [2] the target is muscle (α1)2βγδ nAChR subtype (Torpedo marmorata, UniProt P02711+Q6S3H8+Q6S3H9). The note with it: antagonistic activity, TEVC; value (95% CI); read-out: nAChR subtype (nM; 95% CI) α12β1γδ (Torpedo); cited from earlier work.
Another data set addresses α4β2 nAChR (Homo sapiens, UniProt P17787+P43681). The note with it: antagonistic activity, TEVC; value (95% CI); read-out: nAChR subtype (nM; 95% CI) α4β2 (human); cited from earlier work.
Data set [3] has as its system 3T3, L929, 4T1 and Caco-2 cells. The note with it: normal cell lines 3T3 and L929, tumor cell line 4T1, Caco-2 cells; cited from earlier work.
The test system of the next data set is P338 leukemia cell line. The note with it: mouse P338 leukemia cell line; cited from earlier work.
Another data set relates to cancer cell lines. The note with it: literature (Tang et al. 2023; Fribley et al. 2019); cited from earlier work.
For data set [4], the target named is T1, human α7 nAChR subtype. Put plainly: Two-electrode voltage clamp electrophysiology on Xenopus laevis oocytes expressing the α7 nAChR. Format: cell-based. The source says: The emerging cyclic imines toxins (CiTXs) of global distribution across coastal environments that are produced by dinoflagellates move fast up the human food chain through shellfish. The CiTX family includes 44 compounds: 7 gymnodimines (A-E, 12-methylgymnodimine and 16-desmethyl gymnodimine D), 16 spirolides (A-D, G-I, 13-desmethyl spirolide-C, 27-Hydroxy-13-desmethyl spirolide-C, 13,19-didesmethyl spirolide-C, 20-hydroxy-13,19-didesmethyl spirolide- C, 27-hydroxy-13,19-spirolide-C, 27-Oxo-13,19-didesmethyl spirolide-C, 13-desmethyl spirolide-D, 20-hydroxy-13,19-didesmethyl spirolide-D and 20-methyl spirolide-G), 8 pinnatoxins (A-H), 3 pteriatoxins (A-C), 6 prorocentrolides (A-B, 4- hydroxyprorocentrolide, 9,51-dihydro prorocentrolide, 30-sulfate prorocentrolide and 14-O-acetyl-4-hydroxyprorocentrolide), 1 spiroprorocentrimine, 2 portimines (A and B), and 1 kabirimine, (Aráoz et al. (2020) Cyclic imine toxins survey in coastal european shellfish samples: Bioaccumulation and mode of action of 28-O-palmitoyl ester of pinnatoxin-G. First report of portimine-A bioaccumulation. Harmful Algae, 98 [1]). The spiroimine moiety is the major feature characterizing cyclic imine toxins. The exception to this rule is prorocentrolides in which a hexahydroisoquinoline group replaces the spiroimine motif, (Torigoe et al. (1988) Prorocentrolide, a toxic nitrogenous macrocycle from a marine dinoflagellate, Prorocentrum-lima. Journal of the American Chemical Society, 110:7876-7877 [2]). Portimines display a 5-membered cyclic imine ring; gymnodimines, prorocentrolides, spiroprorocentrimines and kabirimine present a 6-membered imine ring, while spirolides, pinnatoxins and pteriatoxins display a 7-membered imine ring. Cyclic imine toxins are fast acting neurotoxins that, when administered intraperitoneally or by gavage at lethal doses, kill mice by respiratory arrest within minutes following blockade of neuromuscular nicotinic acetylcholine receptors (nAChR). The mode of action of several cyclic imines on nAChRs has been characterized, namely: gymnodimine-A, 13- desmethyl spirolide- C, 13,19-didesmethyl spirolide-C, 20-methyl spirolide-G, pinnatoxin-A, pinnatoxin-G, prorocentrolide-A and portimine, (Lamoise et al. (2017) Physico-chemical and functional characterization of portimine purified from Vulcanodinium rugosum strain IFR-VRU-01. In "Marine and Fresh-Water Harmful Algae". Proceedings of the 17th International Conference on Harmful Algae (Proença, L.A.O. and Hallegraeff, G. eds) pp. 126-129 ISSHA and IOC/UNESCO, Florianapolis; Molgó et al. (2017) Cyclic imine toxins from dinoflagellates: a growing family of potent antagonists of the nicotinic acetylcholine receptors. Journal of Neurochemistry, 142:41-51 [4]). They are potent antagonists of muscular and neuronal nicotinic acetylcholine receptors with pinnatoxin-A displaying picomolar affinities towards the α7 nicotinic acetylcholine receptor subtype (Aráoz et al. (2011) Total synthesis of pinnatoxins A and G and revision of the mode of action of pinnatoxin A. Journal of the American Chemical Society 133(27):10499-10511 [5]). In contrast, prorocentrolide and portimine show micromolar affinities towards the α7 nicotinic acetylcholine receptor subtype (Lamoise et al. (2017), Stivala et al. (2015) Synthesis and biology of cyclic imine toxins, an emerging class of potent, globally distributed marine toxins. Natural Product Reports, 32(3):411-435 [6]) (Table1). Table 1. Antagonistic activity of CiTX (Two-Electrodes Voltage Clamp electrophysiology).
• Figure 1 represents the chemical structure of ingrilimine according to compound (Illa) formula. • Figure 2 represents the cytotoxic activity of ingrilimine. A2780 ovarian and HT29 colorectal carcinoma cells were grown in RPMI 1640 supplemented with 10% fetal calf serum (FCS) and 1% glutamine. […]

T1 sequence (P36544 23-502): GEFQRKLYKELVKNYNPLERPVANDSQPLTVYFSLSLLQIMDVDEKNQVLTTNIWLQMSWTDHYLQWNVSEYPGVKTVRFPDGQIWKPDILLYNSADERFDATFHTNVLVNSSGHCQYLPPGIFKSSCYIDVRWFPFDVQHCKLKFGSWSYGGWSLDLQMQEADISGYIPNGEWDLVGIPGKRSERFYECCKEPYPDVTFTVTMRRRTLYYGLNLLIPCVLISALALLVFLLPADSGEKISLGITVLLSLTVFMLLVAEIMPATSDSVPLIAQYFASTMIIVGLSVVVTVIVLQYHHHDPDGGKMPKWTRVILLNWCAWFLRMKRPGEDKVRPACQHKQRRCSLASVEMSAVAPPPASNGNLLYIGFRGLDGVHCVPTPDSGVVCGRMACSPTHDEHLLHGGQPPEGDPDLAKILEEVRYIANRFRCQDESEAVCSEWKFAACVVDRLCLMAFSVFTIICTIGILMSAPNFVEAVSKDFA
α4β2 nAChR, sequence (P43681 29-627): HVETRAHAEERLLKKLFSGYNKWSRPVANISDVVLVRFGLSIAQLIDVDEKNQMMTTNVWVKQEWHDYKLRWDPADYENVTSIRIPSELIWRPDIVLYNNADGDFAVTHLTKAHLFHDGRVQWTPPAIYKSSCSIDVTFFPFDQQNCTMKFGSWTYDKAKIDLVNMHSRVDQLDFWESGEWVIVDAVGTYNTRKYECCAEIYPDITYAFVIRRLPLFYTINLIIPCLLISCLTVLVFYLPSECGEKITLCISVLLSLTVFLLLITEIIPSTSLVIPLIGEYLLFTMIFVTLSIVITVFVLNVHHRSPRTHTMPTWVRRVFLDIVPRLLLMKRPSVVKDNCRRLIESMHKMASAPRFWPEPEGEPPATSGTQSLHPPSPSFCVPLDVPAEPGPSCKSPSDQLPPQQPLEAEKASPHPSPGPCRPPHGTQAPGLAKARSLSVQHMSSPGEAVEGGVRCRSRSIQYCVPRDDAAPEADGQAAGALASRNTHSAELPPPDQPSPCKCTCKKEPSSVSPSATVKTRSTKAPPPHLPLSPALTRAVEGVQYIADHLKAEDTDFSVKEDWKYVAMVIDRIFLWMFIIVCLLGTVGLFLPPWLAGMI
α4β2 nAChR, sequence (P17787 26-502): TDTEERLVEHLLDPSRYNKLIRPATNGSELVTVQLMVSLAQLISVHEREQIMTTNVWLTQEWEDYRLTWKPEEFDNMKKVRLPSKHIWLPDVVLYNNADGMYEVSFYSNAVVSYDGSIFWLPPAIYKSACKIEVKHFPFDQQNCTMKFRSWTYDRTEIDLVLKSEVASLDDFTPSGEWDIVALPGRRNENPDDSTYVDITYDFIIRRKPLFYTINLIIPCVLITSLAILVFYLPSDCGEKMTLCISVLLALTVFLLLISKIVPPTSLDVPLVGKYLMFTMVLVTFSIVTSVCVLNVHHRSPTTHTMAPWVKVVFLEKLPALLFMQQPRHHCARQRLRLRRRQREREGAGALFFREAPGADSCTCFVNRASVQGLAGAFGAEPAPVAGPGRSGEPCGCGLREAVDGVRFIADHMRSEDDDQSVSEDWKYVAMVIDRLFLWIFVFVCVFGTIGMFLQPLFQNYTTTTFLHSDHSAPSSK
muscle (α1)2βγδ nAChR subtype, sequence (P02711 25-461): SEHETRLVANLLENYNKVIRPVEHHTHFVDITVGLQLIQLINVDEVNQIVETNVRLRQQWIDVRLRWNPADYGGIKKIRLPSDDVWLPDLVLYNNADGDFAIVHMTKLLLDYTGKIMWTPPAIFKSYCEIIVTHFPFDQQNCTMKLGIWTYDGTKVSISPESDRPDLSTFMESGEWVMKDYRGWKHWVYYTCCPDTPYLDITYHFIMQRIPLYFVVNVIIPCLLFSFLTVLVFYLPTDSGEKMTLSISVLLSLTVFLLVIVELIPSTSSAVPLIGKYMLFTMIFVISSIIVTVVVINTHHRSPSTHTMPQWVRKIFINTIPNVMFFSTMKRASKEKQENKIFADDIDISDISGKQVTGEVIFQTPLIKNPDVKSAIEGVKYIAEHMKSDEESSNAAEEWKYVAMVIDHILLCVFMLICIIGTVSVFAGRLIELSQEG
muscle (α1)2βγδ nAChR subtype, sequence (Q6S3H9 entry or part of it): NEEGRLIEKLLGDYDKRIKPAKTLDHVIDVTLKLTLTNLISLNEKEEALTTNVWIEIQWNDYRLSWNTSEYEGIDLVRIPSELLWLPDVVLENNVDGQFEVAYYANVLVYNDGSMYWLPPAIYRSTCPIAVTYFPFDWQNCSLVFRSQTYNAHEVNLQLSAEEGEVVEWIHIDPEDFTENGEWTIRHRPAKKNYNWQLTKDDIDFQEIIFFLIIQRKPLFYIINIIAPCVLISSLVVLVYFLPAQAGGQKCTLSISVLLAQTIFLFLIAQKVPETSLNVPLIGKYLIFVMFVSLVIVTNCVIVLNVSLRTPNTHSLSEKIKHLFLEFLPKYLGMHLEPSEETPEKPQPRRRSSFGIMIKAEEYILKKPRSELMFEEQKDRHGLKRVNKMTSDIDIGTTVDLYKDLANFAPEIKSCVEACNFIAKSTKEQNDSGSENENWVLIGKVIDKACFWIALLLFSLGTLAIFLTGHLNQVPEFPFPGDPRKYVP
muscle (α1)2βγδ nAChR subtype, sequence (Q6S3H8 entry or part of it): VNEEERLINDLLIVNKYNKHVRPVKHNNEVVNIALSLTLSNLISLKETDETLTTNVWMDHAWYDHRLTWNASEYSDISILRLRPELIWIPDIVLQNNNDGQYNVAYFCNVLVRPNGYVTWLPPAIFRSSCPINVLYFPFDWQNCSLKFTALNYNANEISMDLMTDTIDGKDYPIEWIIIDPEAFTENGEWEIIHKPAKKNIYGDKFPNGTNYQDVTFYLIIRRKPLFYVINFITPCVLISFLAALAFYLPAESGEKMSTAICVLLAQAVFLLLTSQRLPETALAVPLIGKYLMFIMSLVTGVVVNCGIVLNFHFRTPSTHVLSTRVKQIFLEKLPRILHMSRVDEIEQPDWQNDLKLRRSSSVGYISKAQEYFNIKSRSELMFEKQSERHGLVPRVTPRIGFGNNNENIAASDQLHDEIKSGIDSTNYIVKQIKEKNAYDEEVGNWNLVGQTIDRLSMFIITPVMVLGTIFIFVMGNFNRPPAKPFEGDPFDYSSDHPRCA
muscle (α1)2βγδ nAChR subtype, sequence (Q6S3I0 entry or part of it, further chain): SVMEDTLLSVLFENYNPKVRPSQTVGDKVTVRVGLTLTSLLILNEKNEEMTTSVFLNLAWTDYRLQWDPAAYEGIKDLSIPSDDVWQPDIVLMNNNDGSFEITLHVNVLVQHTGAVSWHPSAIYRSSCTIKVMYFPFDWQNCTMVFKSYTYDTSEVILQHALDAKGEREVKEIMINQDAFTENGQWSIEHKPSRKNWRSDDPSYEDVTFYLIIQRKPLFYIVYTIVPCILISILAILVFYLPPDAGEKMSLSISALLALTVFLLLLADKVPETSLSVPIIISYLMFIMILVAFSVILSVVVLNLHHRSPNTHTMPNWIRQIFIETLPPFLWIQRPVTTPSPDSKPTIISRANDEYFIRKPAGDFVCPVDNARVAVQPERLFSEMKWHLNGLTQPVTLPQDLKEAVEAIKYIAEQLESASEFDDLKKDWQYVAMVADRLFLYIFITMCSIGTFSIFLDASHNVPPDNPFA

20-methyl spirolide-G: the IC50 was 0.48 nM at human α7 nAChR subtype [1], 0.36 nM in data set [2] and 2.1 nM on α4β2 nAChR.

With “28-O-palmitoyl ester of pinnatoxin-G [Palmitate PnTX-G]”, in data set [2], the IC50 was 0.97 nM.

In the case of `C=C1CCCC2OC(CC3=CC4/C(C)=C/CC(C)CC(/C=C(\C)C(O)C5CC(O)C(O)C(CCC(O)/C=C/C(C)=C/CCC6=NCCC(C3)C64C)O5)OC(=O)CC3CC(O)C(O3)C(O)C1)CC(O)C2O` (stereo not shown) [Prorocentrolide], the values for the IC50 (on human α7 nAChR subtype [1]; in data set [2]) were 1660 nM and 186 nM, respectively.

In the case of Gymnodimine-A, in data set [3], the “cytotoxic, concentration region” value is given as “micromolar region”. The values for the IC50 (in data set [2]; on α4β2 nAChR) were 2.8 nM and 0.9 nM, respectively.

In the case of `C=CC1=C[C@@H]2[C@@H]3O[C@]4(C[C@H]5CCC[C@@]6(CC[C@@]7(O[C@@H](CC[C@@]7(C)O)CC(=C)CCCC7=NC[C@H](C)[C@@H](C)C[C@@]72CC1)O6)O5)C[C@@H](C)[C@@H](O)[C@H]3O4` [Pinnatoxine-G], the IC50 is 5.06 nM on human α7 nAChR subtype [1], 3.82 nM in data set [2] and 4.9 nM at α4β2 nAChR.

As for `C=C1CCCC2=NC[C@H](C)[C@@H](C)C[C@@]23CCC([C@@H]2CCC(=O)O2)=C[C@@H]3[C@@H]2O[C@@]3(C[C@@H](C)C[C@H]2O3)C[C@@H]2O[C@]3(CC[C@@]4(O[C@@H](CC[C@@]4(C)O)C1)O3)C[C@H](C)[C@@H]2O` [pinnatoxin-F], the IC50 with P338 leukemia cell line is > 1000 nM.

On to portimine B, for which the “cytotoxic activities, order of magnitude” value in the data set with cancer cell lines is ~10^-7 M.

In the case of `C=C1CCCC2=NC[C@H](C)[C@@H](C)C[C@@]23CCC(C(=O)O)=C[C@@H]3[C@@H]2O[C@]3(C[C@H]4CCC[C@@]5(CC[C@@]6(O[C@@H](CC[C@@]6(C)O)C1)O5)O4)C[C@@H](C)[C@@H](O)[C@H]2O3` [Pinnatoxine-A], the “antagonistic activity against human α7 nAChR, times more potent than towards muscle-type (α1)2β1γδ nAChR” value on human α7 nAChR subtype [4] (selectivity α7 vs muscle-type) is listed as 50 times. Besides, at human α7 nAChR subtype [4] (selectivity α7 vs α4β2), the “antagonistic activity against human α7 nAChR, times more potent than against the human neuronal α4β2 nAChR subtype” value is recorded as ~ 300 times. Further, the IC50 was 0.107 nM on human α7 nAChR subtype [1], 5.53 nM in data set [2] and 30.4 nM at α4β2 nAChR.

Take `C=C1CCCC2=NCC(C)C(C)CC23CCC(C2C=C(C)C(=O)O2)=C(C)C3/C=C(\C)C(O)CC2CCC3(CCC4(OC(CCC4O)C1)O3)O2` (stereo not shown) [13,19-didesmethyl spirolide-C]: the IC50 at human α7 nAChR subtype [1] was 0.25 nM; in data set [2] it was 0.2 nM; at α4β2 nAChR, 6.26 nM.

As for `C=C1CCCC2=NCC(C)C(C)CC23CCC(C2C=C(C)C(=O)O2)=C(C)C3/C=C(/C)C(O)CC2CCC3(CCC4(OC(CCC4(C)O)C1)O3)O2` (stereo not shown) [13-desmethyl spirolide-C], the figures for the IC50 (on human α7 nAChR subtype [1]; in data set [2]; on α4β2 nAChR) were 0.18 nM, 0.51 nM and 3.9 nM, respectively.
